pIC50: −log10 of the molar value.
Assays:
[1] = molecular target: PERK (Homo sapiens (Human), UniProt Q9NZJ5); assay: PERK cellular assay (TR-FRET, HEK293-EGFP-eIF2α cells, tunicamycin-induced ER stress); format: cell-based; conditions: tunicamycin 2 hours, read-out: Cellular IC50 (μM) (EIF2a)
Experimental: Stable cell lines were created in HEK293 cells using lentiviral particles harboring an expression vector for GFP-eIF2α. Cells were selected using puromycin and enriched using fluorescence activated cell sorting against GFP. HEK293-EGFP-eIF2α cells were plated at 5000 cells/well in 384-well assay plates and incubated overnight at 37° C., 5% CO2. Inhibitor compounds were added to the wells by Echo acoustic dispensing and incubated for 30 minutes at 37° C., 5% CO2 prior to induction of ER stress by addition of tunicamycin to […] for 2 hours. Cells were lysed and TR-FRET was measured in an EnVision plate reader (PerkinElmer). FRET ratio data was normalized to signal from lysates treated with DMSO vehicle control and plotted as percent inhibition against 10-point; 3-fold dilution series of inhibitors. IC50 values were calculated using 4-parameter logistical fitting in XLFit.

[2] = molecular target: EIF2AK3 (PERK) catalytic domain (amino acids 536-1116) (Homo sapiens (Human), UniProt Q9NZJ5); assay: PERK in vitro activity assay (isolated), TR-FRET kinase assay; conditions: isolated PERK enzyme, 1.5 μM ATP, GFP-eIF2a substrate; read-out: Biochemical IC50
Text: PERK In Vitro Activity Assay (Isolated):
In vitro Inhibition of PERK Enzyme Activity (isolated) Recombinant human EIF2AK2 (PKR) catalytic domain (amino acids 252-551), EIF2AK3 (PERK) catalytic domain (amino acids 536-1116), GFP-eIF2a substrate, and Terbium-labelled phospho-eIF2a antibody is obtained (Invitrogen, Carlsbad, CA).
Express and purify HIS-SUMO-GCN2 catalytic domain (amino acids 584-1019) from E. coli. Perform TR-FRET kinase assays in the absence or presence of inhibitors in a reaction buffer consisting of 50 mM HEPES, pH 7.5, 10 mM MgCb, 1.0 mM EGTA, and 0.01% Brij-35, and 100-200 nM GFP-eIF2a substrate. […] Add test compound, initiate the reaction by addition of enzyme, and incubate at room temperature for 45 minutes. Stop the reaction by addition of EDTA to a final concentration of 10 mM, add Terbium-labelled phospho-eIF2a antibody at a final concentration of 2 nM, and incubate for 90 minutes. Monitor the resulting fluorescence in an EnVison® Multilabel reader (PerkinElmer, Waltham, MA). Determine TR-FRET ratios and the resulting IC50 values using a 4-parameter nonlinear logistic equation as shown: Y=(A+((B−A)/(1+((C/x)[…])))) where, Y=% specific inhibition, A=Bottom of the curve, B=Top of the curve, C=absolute IC50 (concentration causing 50% inhibition), and D=hill slope.

Chain of EIF2AK3 (PERK) catalytic domain (amino acids 536-1116) (Q9NZJ5 536-1116): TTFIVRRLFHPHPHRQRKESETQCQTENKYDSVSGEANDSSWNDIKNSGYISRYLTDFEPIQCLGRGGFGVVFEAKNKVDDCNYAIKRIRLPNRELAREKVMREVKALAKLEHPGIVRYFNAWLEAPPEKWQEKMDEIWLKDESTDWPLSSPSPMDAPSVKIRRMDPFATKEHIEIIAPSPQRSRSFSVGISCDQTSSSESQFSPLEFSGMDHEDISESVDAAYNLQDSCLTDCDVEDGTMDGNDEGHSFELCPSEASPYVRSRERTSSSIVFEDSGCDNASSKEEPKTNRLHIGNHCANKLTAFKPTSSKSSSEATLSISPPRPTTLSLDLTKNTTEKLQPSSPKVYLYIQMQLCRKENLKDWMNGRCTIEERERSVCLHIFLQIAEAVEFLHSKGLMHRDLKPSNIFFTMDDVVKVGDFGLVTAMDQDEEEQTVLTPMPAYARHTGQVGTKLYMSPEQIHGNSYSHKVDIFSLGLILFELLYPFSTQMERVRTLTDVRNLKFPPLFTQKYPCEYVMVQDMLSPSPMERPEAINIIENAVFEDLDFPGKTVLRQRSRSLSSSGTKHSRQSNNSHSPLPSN
Chain of PERK (Q9NZJ5 30-1116): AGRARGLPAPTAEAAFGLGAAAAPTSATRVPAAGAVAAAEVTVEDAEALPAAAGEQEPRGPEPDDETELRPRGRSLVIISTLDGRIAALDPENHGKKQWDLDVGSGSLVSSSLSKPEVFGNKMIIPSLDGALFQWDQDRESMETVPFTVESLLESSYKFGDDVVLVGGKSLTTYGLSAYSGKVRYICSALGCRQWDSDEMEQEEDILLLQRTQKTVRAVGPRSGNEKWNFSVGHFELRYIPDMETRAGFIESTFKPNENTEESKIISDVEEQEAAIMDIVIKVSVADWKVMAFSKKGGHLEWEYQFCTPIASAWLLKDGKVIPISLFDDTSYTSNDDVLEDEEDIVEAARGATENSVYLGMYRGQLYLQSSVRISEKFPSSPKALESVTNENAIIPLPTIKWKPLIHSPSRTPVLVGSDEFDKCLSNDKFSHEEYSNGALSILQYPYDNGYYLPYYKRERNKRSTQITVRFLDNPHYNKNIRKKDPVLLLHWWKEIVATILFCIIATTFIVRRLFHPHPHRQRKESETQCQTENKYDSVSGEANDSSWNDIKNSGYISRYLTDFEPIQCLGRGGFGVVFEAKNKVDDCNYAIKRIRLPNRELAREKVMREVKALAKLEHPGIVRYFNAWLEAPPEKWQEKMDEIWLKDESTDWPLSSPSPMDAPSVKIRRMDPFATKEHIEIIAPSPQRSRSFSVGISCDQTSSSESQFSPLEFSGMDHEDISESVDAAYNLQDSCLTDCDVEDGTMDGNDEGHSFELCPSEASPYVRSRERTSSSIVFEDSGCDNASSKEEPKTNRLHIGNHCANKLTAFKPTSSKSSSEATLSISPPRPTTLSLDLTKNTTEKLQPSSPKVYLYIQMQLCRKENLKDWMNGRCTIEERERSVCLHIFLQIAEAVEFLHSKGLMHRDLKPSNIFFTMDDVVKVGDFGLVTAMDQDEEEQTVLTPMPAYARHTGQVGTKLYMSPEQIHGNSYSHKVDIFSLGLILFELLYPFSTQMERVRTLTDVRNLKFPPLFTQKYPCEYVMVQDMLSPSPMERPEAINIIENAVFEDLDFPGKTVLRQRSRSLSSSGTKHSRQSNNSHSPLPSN

Row | SMILES | IC50 [1] [µM] | pIC50 [2]
1 | Nc1ncc(-c2ccc(NC(=O)C(O)c3cc(F)cc(F)c3)cc2Cl)nc1C(=O)NC1COC1 (stereo not shown) [Example 168, 3-amino-6-(2-chloro-4-(2-(3,5-difluorophenyl)-2-hydroxyacetamido)phenyl)-N-(oxetan-3-yl)pyrazine-2-carboxamide] | 0.101 to 0.25 | 7.00 to 7.29
2 | Cc1cc(NC(=O)C(O)c2cc(F)cc(F)c2)ccc1-c1cnc(N)c(C(=O)NC2CC(O)C2)c1 (stereo not shown) [Example 26, 2-amino-5-(4-(2-(3,5-difluorophenyl)-2-hydroxyacetamido)-2-methylphenyl)-N-(3-hydroxycyclobutyl) nicotinamide] | 0.101 to 0.25 | 7.60 to 9.00
3 | CCNC(=O)c1cc(-c2ccc(NC(=O)C(O)c3cc(F)cc(F)c3)cc2CC)cnc1N (stereo not shown) [Example 98, 2-amino-5-(4-(2-(3,5-difluorophenyl)-2-hydroxyacetamido)-2-ethylphenyl)-N-ethylnicotinamide] | 0.001 to 0.025 | 7.60 to 9.00
4 | Cc1cc(NC(=O)C(O)c2cc(F)cc(F)c2)ccc1-c1cnc(N)c(C(=O)NCC(C)C)c1 (stereo not shown) [Example 21, 2-amino-5-(4-(2-(3,5-difluorophenyl)-2-hydroxyacetamido)-2-methylphenyl)-N-isobutylnicotinamide] | 0.251 to 0.5 | 6.60 to 7.00
5 | CC(C)NC(=O)c1cc(-c2ccc(NC(=O)C(O)c3cc(F)cc(F)c3)cc2C(F)(F)F)cnc1N (stereo not shown) [Example 36, 2-amino-5-(4-(2-(3,5-difluorophenyl)-2-hydroxyacetamido)-2-(trifluoromethyl)phenyl)-N-isopropylnicotinamide] | 0.051 to 0.1 | 7.60 to 9.00
6 | CC(C)NC(=O)c1cc(-c2ccc(NC(=O)C(O)c3cc(F)cc(F)c3)cc2OC(F)(F)F)cnc1N (stereo not shown) [Example 113, 2-amino-5-(4-(2-(3,5-difluorophenyl)-2-hydroxyacetamido)-2-(trifluoromethoxy)phenyl)-N-isopropylnicotinamide] | 0.501 to 1 | 7.00 to 7.29
7 | Nc1ncc(-c2ccc(NC(=O)C(O)c3cc(F)cc(F)c3)cc2Cl)nc1C(=O)NCC(F)(F)F (stereo not shown) [Example 164, 3-amino-6-(2-chloro-4-(2-(3,5-difluorophenyl)-2-hydroxyacetamido)phenyl)-N-(2,2,2-trifluoroethyl) pyrazine-2-carboxamide] | 0.251 to 0.5 | 5.70 to 6.00
8 | CCc1cc(NC(=O)C(O)c2cccc(C(F)(F)F)c2)ccc1-c1cnc(N)c(C(=O)NC(C)C)c1 (stereo not shown) [Example 111, 2-amino-5-(2-ethyl-4-(2-hydroxy-2-(3-(trifluoromethyl)phenyl)acetamido)phenyl)-N-isopropylnicotinamide] | 0.101 to 0.25 | 6.60 to 7.00
9 | CCc1cc(NC(=O)C(O)c2cc(F)cc(F)c2)ccc1-c1cnc(N)c(C(=O)NC2CC2)n1 (stereo not shown) [Example 157, 3-amino-N-cyclopropyl-6-(4-(2-(3,5-difluorophenyl)-2-hydroxyacetamido)-2-ethylphenyl) pyrazine-2-carboxamide] | 0.101 to 0.25 | 6.60 to 7.00
10 | Cc1cc(NC(=O)C(O)c2cc(F)cc(F)c2)ccc1-c1cnc(N)c(C(=O)NC(C)C)c1 (stereo not shown) [Example 9, 2-amino-5-(4-(2-(3,5-difluorophenyl)-2-hydroxyacetamido)-2-methylphenyl)-N-isopropyl nicotinamide] | 0.101 to 0.25 | 7.30 to 7.59
11 | COc1ccc(CC(=O)Nc2ccc(-c3cnc(N)c(C(=O)NC(C)C)c3)c(C)c2)cc1 [Example 194, 2-amino-N-isopropyl-5-(4-(2-(4-methoxyphenyl)acetamido)-2-methylphenyl) nicotinamide] | 2 to 3 | 6.00 to 6.30
12 | Cc1cc(NC(=O)C(O)c2cc(F)cc(F)c2)ccc1-c1ccc(N)nc1 (stereo not shown) [Example 171, N-(4-(6-aminopyridin-3-yl)-3-methylphenyl)-2-(3,5-difluorophenyl)-2-hydroxyacetamide] | > 5 | 6.30 to 6.60
13 | Cc1cc(NC(=O)C(O)c2cc(F)cc(F)c2)ccc1-c1cnc(N)c(C(=O)NC2CC2)n1 (stereo not shown) [Example 139, 3-amino-N-cyclopropyl-6-(4-(2-(3,5-difluorophenyl)-2-hydroxyacetamido)-2-methylphenyl) pyrazine-2-carboxamide] | 0.251 to 0.5 | 7.60 to 9.00
14 | Cc1cc(NC(=O)C(O)c2cc(F)cc(F)c2)ccc1-c1cnc(N)c(C(=O)NC2CC2)n1 (stereo not shown) [Example 138, 3-amino-N-cyclopropyl-6-(4-(2-(3,5-difluorophenyl)-2-hydroxyacetamido)-2-methylphenyl) pyrazine-2-carboxamide] | 0.026 to 0.05 | 7.60 to 9.00
15 | Cc1cc(NC(=O)Cc2ccccc2)ccc1-c1cnc(N)c(C(=O)NC(C)C)c1 [Example 187, 2-amino-N-isopropyl-5-(2-methyl-4-(2-phenylacetamido)phenyl)nicotinamide] | 0.501 to 1 | 7.00 to 7.29
16 | CCc1cc(NC(=O)C(O)c2cc(F)cc(F)c2)ccc1-c1cnc(N)c(C(=O)NCC(F)(F)F)n1 (single isomer, unassigned) [Example 154, 3-amino-6-(4-(2-(3,5-difluorophenyl)-2-hydroxyacetamido)-2-ethylphenyl)-N-(2,2,2-trifluoroethyl) pyrazine-2-carboxamide] | 0.001 to 0.025 | 7.60 to 9.00
17 | Cc1c(-c2cnc(N)c(C(=O)NC(C)C)c2)ccc(NC(=O)C(O)c2cc(F)cc(F)c2)c1F (stereo not shown) [Example 116, 2-amino-5-(4-(2-(3,5-difluorophenyl)-2-hydroxyacetamido)-3-fluoro-2-methylphenyl)-N-isopropylnicotinamide] | 1 to 2 | 6.30 to 6.60
18 | Cc1cc(NC(=O)C(C)(O)c2ccccc2)ccc1-c1cnc(N)c(C(=O)NC(C)C)c1 (stereo not shown) [Example 4, 2-amino-5-(4-(2-hydroxy-2-phenylpropanamido)-2-methylphenyl)-N-isopropylnicotinamide] | 3 to 4 | 6.60 to 7.00
19 | Cc1cc(NC(=O)C(O)c2cc(F)cc(F)c2)ccc1-c1cnc(N)c(C(=O)NCC(C)C)c1 (stereo not shown) [Example 20, 2-amino-5-(4-(2-(3,5-difluorophenyl)-2-hydroxyacetamido)-2-methylphenyl)-N-isobutylnicotinamide] | 0.026 to 0.05 | 7.60 to 9.00
20 | CCc1cc(NC(=O)C(O)c2cc(F)cc(F)c2)ccc1-c1cnc(N)c(C(=O)NC(C)C)n1 (stereo not shown) [Example 151, 3-amino-6-(4-(2-(3,5-difluorophenyl)-2-hydroxyacetamido)-2-ethylphenyl)-N-isopropylpyrazine-2-carboxamide] | 0.026 to 0.05 | 7.60 to 9.00
21 | Cc1cc(NC(=O)C(O)c2cc(F)cc(F)c2)ccc1-c1cnc(N)c(C(=O)OC(C)C)c1 (single isomer, unassigned) [Example 42, isopropyl 2-amino-5-(4-(2-(3,5-difluorophenyl)-2-hydroxyacetamido)-2-methylphenyl) nicotinate] | 0.026 to 0.05 | 7.60 to 9.00
22 | Cc1cc(NC(=O)C(O)c2cccc3c2OCC3)ccc1-c1cnc(N)c(C(=O)NC(C)C)c1 (stereo not shown) [Example 74, 2-amino-5-(4-(2-(2,3-dihydrobenzofuran-7-yl)-2-hydroxyacetamido)-2-methylphenyl)-N-isopropylnicotinamide] | 1 to 2 | 6.30 to 6.60
23 | Cc1cc(NC(=O)C(O)c2cc(F)cc(F)c2)ccc1-c1cnc(C)c(C(=O)NC(C)C)c1 (stereo not shown) [Example 177, 5-(4-(2-(3,5-difluorophenyl)-2-hydroxyacetamido)-2-methylphenyl)-N-isopropyl-2-methylnicotinamide] | 0.251 to 0.5 | 7.30 to 7.59
24 | COc1cccc(CC(=O)Nc2ccc(-c3cnc(N)c(C(=O)NC(C)C)c3)c(C)c2)c1 [Example 193, 2-amino-N-isopropyl-5-(4-(2-(3-methoxyphenyl)acetamido)-2-methylphenyl) nicotinamide] | 0.501 to 1 | 7.00 to 7.29
25 | Cc1cc(NC(=O)C(O)c2cc(F)cc(F)c2)ccc1-c1cnc(N)c(C(=O)NCC(F)(F)F)c1 (single isomer, unassigned) [Example 18, 2-amino-5-(4-(2-(3,5-difluorophenyl)-2-hydroxyacetamido)-2-methylphenyl)-N-(2,2,2-trifluoroethyl) nicotinamide] | 0.026 to 0.05 | 7.60 to 9.00
26 | CCc1cc(NC(=O)C(O)c2cccc(C)c2)ccc1-c1cnc(N)c(C(=O)NC(C)C)n1 (stereo not shown) [Example 160, 3-amino-6-(2-ethyl-4-(2-hydroxy-2-(m-tolyl)acetamido)phenyl)-N-isopropylpyrazine-2-carboxamide] | 0.001 to 0.025 | 7.60 to 9.00

Reference: patent US12473296B2, “Perk inhibiting compounds” (HiberCell, Inc., priority 2019, dated 2025)
